Measurements published in patent US9138470B2, “Multi-component L2 vaccine for prevention of human papilloma virus infection” (The Johns Hopkins University, priority 2007, dated 2015).
Entries after “also recorded” stand apart in the source; their conditions may differ.

What was measured:
Type in all cases: in vivo
HPV16 pseudovirions = assay: Cutaneous HPV challenge with HPV16 pseudovirions (luciferase reporter); conditions: BALB/c mice vaccinated s.c. three times, bioluminescence 3 days post-challenge
Procedure: (§1) Immunization of mice. All animal experimental work was done in accordance with Johns Hopkins Medical Institutions Animal Care and Use Committee guidelines. BALB/c and C57BL/6 (NCI, Frederick, Md.) wild type or MyD88 (D. Golenbock, UMass Medical Center, […], Mass.), CD40, or MHCII deficient mice (Jackson Laboratories, Bar Harbor, Me.) were used. Mice aged 4-6 wks were immunized with P25-P2C-HPV vaccine or various controls. All vaccine and control peptides were dissolved in phosphate-buffered saline (PBS). Mice received two booster immunizations at 4 wks and 8 wks after priming immunization in the same fashion and dose. (i) subcutaneous (s.c.): Each mouse was administered 20 nmols of vaccine in a total volume of 100 μL or an equivalent amount of several control preparations at the base of the tail. (ii) intranasal (i.n.): Anesthesia induction was accomplished within 3 to 5 mins using a chamber filled with 2.5% isoflurane (Baxter, Deerfield, Ill.). While anesthetized, each mouse was administered 20 nmols of lipopeptide in a total volume of 50 μL of vaccine or an equivalent amount of several control preparations via controlled micropipetting into the nares.
(§2) Cutaneous HPV challenge. […] Equal areas encompassing the site of virus inoculation were analyzed using Living Image 2.20 software (Xenogen), and background was determined by challenge with non-infectious HPV pseudovirions lacking L2.

HPV45 pseudovirions = assay: Cutaneous HPV challenge with HPV45 pseudovirions (luciferase reporter); conditions: BALB/c mice vaccinated s.c. three times, luminescence 72 hrs post-challenge
Procedure: as §1, §2

HPV16 L2 17-36 = HPV16 L2 17-36 peptide ELISA of sera from immunized mice; conditions: mice vaccinated s.c. or i.n.; compared with saline controls
Procedure: as §1
Collection and quantification of HPV specific antibody responses. […] Presence of serum antibodies against HPV16 was assessed by enzyme-linked immunosorbent assays (ELISA). […]

Substance	protection from cutaneous challenge with HPV16 pseudovirions (HPV16 pseudovirions)	protection from cutaneous challenge with HPV45 pseudovirions (HPV45 pseudovirions)	L2-specific antibody (immune) response by ELISA (HPV16 L2 17-36)
HPV16 L1 VLP: virus-like particles of HPV16 major capsid protein L1, control vaccine	protected mice from cutaneous challenge	did not protect	–
QLYKTCKQAGTCPPDIIPKV (listed as Human papillomavirus) [HPV16 L2 17-36 peptide]	failed to protect the mice	did not protect	immune responses similar to saline controls; also recorded: failed to induce an L2-specific antibody response
